From patent EP0174085A2, “Bisarylamides of N,N'-di-[1-aminoalkyl-2]-alkylene diamines having a cardiovascular activity” (BEECHAM - WUELFING GmbH & Co. KG, priority 1984, dated 1986)

Key:
anaesthetized rats [1] = test: Haemodynamic profile in anaesthetized rats; type: in vivo; design: Dhr20 = i.v. dose which reduces heart rate by ca. 20%: unit not given here; settings: for %effect of Dhr20 on BP (mean arterial blood pressure) / %effect of Dhr20 on dp/dtmax / %effect of Dhr20 on LVP (systolic left ventricular pressure): at Dhr20, i.v.; for %effect of Dhr20 on BP (mean arterial blood pressure) / %effect of Dhr20 on dp/dtmax / Dhr20 = i.v. dose which reduces heart rate by ca. 20% / %effect of Dhr20 on LVP (systolic left ventricular pressure): rat; for %effect of Dhr20 on dp/dtmax: left ventricular dp/dt max
Excerpt: The effect of compounds of the invention on heart rate, systolic left ventricular pressure, left ventricular dp/dt max and mean arterial blood pressure was investigated so as to obtain information on the anti-anginal potential of these compounds, by reducing the oxygen demand of the ischaemic heart.

conscious rabbits = test: Antiarrhythmic activity, suprathreshold cardiac electric stimulation in conscious rabbits; type: in vivo
Protocol: Compound (El) infused at 2.5mg/min in the ear vein of conscious rabbits inhibited the arrhythmogenic effect of suprathreshold cardiac electric stimulation. The therapeutic index, i.e. the ratio between the dose of compound required to produce A-V-block (8 mg/kg) and that dose which gave an antiarrhythmic effect (0.9mg/kg) was 8.9.

anaesthetized rats [2] = test: Antianginal activity, vasopressin-induced ST-segment elevation in the ECG, i.v.; type: in vivo; settings: Rattus norvegicus, iv, reduction of ST-segment elevation after i.v. 1 I.U./kg vasopressin, read-out: minimum effective i.v. antianginal dose
[3] = test system: guinea-pig papillary muscle; test: Ca++-antagonistic activity, calcium dependent action potentials in papillary muscle in vitro; type: cell-based; settings: 1-3 x 10^-6M; 34+ 1°C; krebs medium containing 26 nM K+ and 0.5 nM BaCl2
Protocol: In guinea-pig papillary muscle (34+ 1°C) in vitro, the Compound (El) (1-3 x 10-^6M) depressed the maximal rate of rise (Vmax) of calcium dependent action potentials evoked in krebs medium containing […] K^+ and […], BaC12. These action potentials were recorded using conventional intracellular techniques.

anaesthetized rats [4] = test: Vasopressin test in anaesthetized rats (coronary spasm), intraduodenal; type: in vivo; settings: 32mg/kg i.d.
Protocol: Vasopressin (Lysopressin: 1 I.U./kg) was administered intravenously in order to provoke coronary spasm. Compound (El) was active against coronary spasm at a dose of 32mg/kg i.d. with a duration of action greater than 2 hours. The ability of test compounds to reduce coronary spasm is taken as a measure of their anti-anginal potential in spasm - induced angina pectoris. (Ref. Drug.Res. 33(11), 8,1117-1121 (1983)).

SMILES | %effect of Dhr20 on BP (mean arterial blood pressure) (anaesthetized rats [1]) | %effect of Dhr20 on dp/dtmax (anaesthetized rats [1]) | i.v. duration of action on heart rate (rat) (anaesthetized rats [1]) | Dhr20 = i.v. dose which reduces heart rate by ca. 20% (anaesthetized rats [1]) | %effect of Dhr20 on LVP (systolic left ventricular pressure) (anaesthetized rats [1]) | minimal effective dose (conscious rabbits; Oryctolagus cuniculus, iv, infusion in the ear vein, conscious rabbits, read-out: dose which gave an antiarrhythmic effect) | arrhythmogenic effect of suprathreshold cardiac electric stimulation (conscious rabbits; infused at 2.5mg/min in the ear vein, conscious rabbits) | dose of compound required to produce A-V-block (conscious rabbits; infusion in the ear vein, conscious rabbits) | therapeutic index (conscious rabbits; ratio of A-V-block dose to antiarrhythmic dose) | minimal effective dose (anaesthetized rats [2]) | maximal rate of rise (Vmax) of calcium dependent action potentials [3] | duration of action (anaesthetized rats [4]; against coronary spasm) | activity against coronary spasm (anaesthetized rats [4]; vasopressin (Lysopressin) 1 I.U./kg i.v.)
CCC(CNC(=O)c1cc(Cl)cc(Cl)c1)N(C)CCN(C)C(CC)CNC(=O)c1cc(Cl)cc(Cl)c1 (stereo not drawn) [Compound E2, N,N'-dimethyl-N,N'-di-(2-[1-(3,5-dichlorobenzamido)] -butyl)-ethylene-diamine] | -7% | -21% | 15 min | 3.2 |  |  |  |  |  |  |  |  | 
COc1cc(C(=O)NCC2CCCCN2CCN2CCCCC2CNC(=O)c2cc(OC)c(OC)c(OC)c2)cc(OC)c1OC (stereo not drawn) [Compound E16] | -17% | -32% | 10 min | 6.4 | -17.3% |  |  |  |  |  |  |  | 
CCC(CNC(=O)c1ccc2c(c1)OCO2)N(C)CCN(C)C(CC)CNC(=O)c1ccc2c(c1)OCO2 (stereo not drawn) [Compound E12] | -4% | -11% | 10 to 15 min | 1.6 | -8% |  |  |  |  |  |  |  | 
CCC(CNC(=O)c1cc(OC)c(OC)c(OC)c1)N1CCC(N(C)C(CC)CNC(=O)c2cc(OC)c(OC)c(OC)c2)CC1 (stereo not drawn) [Compound E38, 1-[1-(3,4,5-trimethoxybenzamido-butyl-(2))]-4-N-methyl-N-[1-(3,4,5-trimethoxybenzamido-butyl-(2))]-amino-piperidine] | -6% | -32% | 10 to 15 min | 12.8 | -7% |  |  |  |  |  |  |  | 
CCC(CNC(=O)c1cc(OC)c(OC)c(OC)c1)N(C)CCN(C)C(CC)CNC(=O)c1cc(OC)c(OC)c(OC)c1 (stereo not drawn) [Compound E1, N,N'-dimethyl-N,N'-di-[1-(3,4,5-trimethoxybenzamido)-butyl-(2)]-ethylenediamine] |  | -24% | 5 min | 3.2 | -17% | 0.9 mg/kg | inhibited | 8 mg/kg | 8.9 | 0.2 mg/kg | depressed | greater than 2 hours | active
CCC(CNC(=O)c1ccncc1)N(C)CCN(C)C(CC)CNC(=O)c1ccncc1 (stereo not drawn) [Compound E29] | -10% | -2% | 10 min | 12.8 | -6% |  |  |  |  |  |  |  | 
CCC(CNC(=O)c1ccc(OC)c(OC)c1)N(C)CCN(C)C(CC)CNC(=O)c1ccc(OC)c(OC)c1 (stereo not drawn) [Compound E11] | -2% | -7% | 5 to 10 min | 3.2 | -4% |  |  |  |  |  |  |  | 
CC[C@@H](CNC(=O)c1cc(OC)c(OC)c(OC)c1)N(C)CCN(C)[C@@H](CC)CNC(=O)c1cc(OC)c(OC)c(OC)c1 [Compound E8] | -30% | -36% |  | 3.2 | -29% |  |  |  |  |  |  |  | 
CCC(CNC(=O)c1cccnc1)N(C)CCN(C)C(CC)CNC(=O)c1cccnc1 (stereo not drawn) [Compound E30, N,N'-dimethyl-N,N'-di[1-nicotinoylamido-butyl-(2)]-ethylene-diamine] | -14% | -15% | 10 min | 12.8 | -9% |  |  |  |  |  |  |  | 
CCC(CNC(=O)c1cccc(Cl)c1)N(C)CCN(C)C(CC)CNC(=O)c1cccc(Cl)c1 (stereo not drawn) [Compound E3] | -16% | -15% | 10 min | 1.6 | -2% |  |  |  |  |  |  |  | 
CCC(CNC(=O)c1ccc(C#N)cc1)N(C)CCN(C)C(CC)CNC(=O)c1ccc(C#N)cc1 (stereo not drawn) [Compound E7] | -6% | -15% | 5 to 10 min | 3.2 | -5% |  |  |  |  |  |  |  | 
